Measured values: publication PMC5218480 (PLoS ONE, 2017)

System: MV-4-11 cells
Experiment: Gene expression microarray analysis (Affymetrix PrimeView) and GSEA
Assay type: cell-based, human
Set-up: RFU PODN (11730768_x_at) / Fold change /veh PODN (11730768_x_at) / RFU LINC00158 (11744669_a_at) / Fold change /veh LINC00158 (11744669_a_at) / RFU DUSP10 (11751237_a_at) / Fold change /veh DUSP10 (11751237_a_at) / RFU ID3 (11757404_x_at) / Fold change /veh ID3 (11757404_x_at) / RFU PLEKHG5 (11737974_s_at) / Fold change /veh PLEKHG5 (11737974_s_at) / RFU LRRC4B (11730491_at) / Fold change /veh LRRC4B (11730491_at) / RFU GIMAP4 (11747438_a_at) / Fold change /veh GIMAP4 (11747438_a_at) / RFU KRT8 (11758183_x_at) / Fold change /veh KRT8 (11758183_x_at) / RFU CNN1 (11734310_a_at) / Fold change /veh CNN1 (11734310_a_at) / RFU VPS37D (11726825_at) / Fold change /veh VPS37D (11726825_at) / RFU C10orf10 (11716522_x_at) / Fold change /veh C10orf10 (11716522_x_at) / RFU KIR2DL2 /// KIR2DL4 /// KIR2DL5A /// KIR2DL5B /// KIR2DS1 /// KIR2DS2 /// KIR2DS3 /// KIR2DS4 /// KIR3DL3 /// KIR3DL3 /// KIR3DS1 (11738374_at) / Fold change /veh KIR2DL2 /// KIR2DL4 /// KIR2DL5A /// KIR2DL5B /// KIR2DS1 /// KIR2DS2 /// KIR2DS3 /// KIR2DS4 /// KIR3DL3 /// KIR3DL3 /// KIR3DS1 (11738374_at) / RFU C1QL1 (11718748_at) / Fold change /veh C1QL1 (11718748_at) / RFU TMPRSS4 (11747572_a_at) / Fold change /veh TMPRSS4 (11747572_a_at) / RFU HAMP (11756126_x_at) / Fold change /veh HAMP (11756126_x_at) / RFU RNFT2 (11725882_a_at) / Fold change /veh RNFT2 (11725882_a_at) / RFU NR4A2 (11747474_a_at) / Fold change /veh NR4A2 (11747474_a_at) / RFU ABCC12 (11746883_a_at) / Fold change /veh ABCC12 (11746883_a_at) / RFU TMEM136 (11760407_x_at) / Fold change /veh TMEM136 (11760407_x_at) / RFU CLDN22 /// WWC2 (11732394_at) / Fold change /veh CLDN22 /// WWC2 (11732394_at) / RFU HLA-DPB1 (11760878_x_at) / Fold change /veh HLA-DPB1 (11760878_x_at) / RFU SPINT1 (11716480_a_at) / Fold change /veh SPINT1 (11716480_a_at) / RFU GAP43 (11754022_s_at) / Fold change /veh GAP43 (11754022_s_at) / RFU A4GNT (11735810_at) / Fold change /veh A4GNT (11735810_at) / RFU PRB3 (11715151_x_at) / Fold change /veh PRB3 (11715151_x_at) / RFU TUBB4B (11761932_at) / Fold change /veh TUBB4B (11761932_at) / RFU CAPN14 (11732068_a_at) / Fold change /veh CAPN14 (11732068_a_at) / RFU TMCC2 (11721928_a_at) / Fold change /veh TMCC2 (11721928_a_at) / RFU IRGQ (11745062_a_at) / Fold change /veh IRGQ (11745062_a_at) / RFU FAM174B (11720279_a_at) / Fold change /veh FAM174B (11720279_a_at) / RFU TMPRSS4 (11748680_a_at) / Fold change /veh TMPRSS4 (11748680_a_at) / RFU FAM212B (11763350_a_at) / Fold change /veh FAM212B (11763350_a_at) / RFU PLEKHG5 (11743358_a_at) / Fold change /veh PLEKHG5 (11743358_a_at) / RFU ZSCAN30 (11745921_a_at) / Fold change /veh ZSCAN30 (11745921_a_at) / RFU CMKLR1 (11741424_a_at) / Fold change /veh CMKLR1 (11741424_a_at) / RFU LOC101060620 /// MAPK8IP1 (11723275_at) / Fold change /veh LOC101060620 /// MAPK8IP1 (11723275_at) / RFU SPTSSB (11747773_x_at) / Fold change /veh SPTSSB (11747773_x_at) / RFU PRSS12 (11739890_at) / Fold change /veh PRSS12 (11739890_at) / RFU BIN1 (11741810_x_at) / Fold change /veh BIN1 (11741810_x_at) / RFU WNT11 (11732464_a_at) / Fold change /veh WNT11 (11732464_a_at) / RFU C10orf10 (11716521_a_at) / Fold change /veh C10orf10 (11716521_a_at) / RFU C5orf56 (11738089_at) / Fold change /veh C5orf56 (11738089_at) / RFU CYB561 (11721691_x_at) / Fold change /veh CYB561 (11721691_x_at) / RFU ANKRD19P (11752326_a_at) / Fold change /veh ANKRD19P (11752326_a_at) / RFU OR2T12 /// OR2T33 /// OR2T8 (11738714_s_at) / Fold change /veh OR2T12 /// OR2T33 /// OR2T8 (11738714_s_at) / RFU VCAN (11748164_a_at) / Fold change /veh VCAN (11748164_a_at) / RFU JSRP1 (11732532_at) / Fold change /veh JSRP1 (11732532_at) / RFU KRTAP10-11 (11738290_x_at) / Fold change /veh KRTAP10-11 (11738290_x_at) / RFU MYO3A (11730013_a_at) / Fold change /veh MYO3A (11730013_a_at) / RFU EBF3 (11725865_a_at) / Fold change /veh EBF3 (11725865_a_at) / RFU CAMK2N1 (11719241_x_at) / Fold change /veh CAMK2N1 (11719241_x_at) / RFU C5orf56 (11738088_a_at) / Fold change /veh C5orf56 (11738088_a_at) / RFU OLFML3 (11715873_a_at) / Fold change /veh OLFML3 (11715873_a_at) / RFU LOC100653217 /// NTM (11731650_a_at) / Fold change /veh LOC100653217 /// NTM (11731650_a_at) / RFU MAPK11 (11762145_a_at) / Fold change /veh MAPK11 (11762145_a_at) / RFU FIZ1 (11724087_x_at) / Fold change /veh FIZ1 (11724087_x_at) / RFU OASL (11726364_x_at) / Fold change /veh OASL (11726364_x_at) / RFU SOX15 (11748057_x_at) / Fold change /veh SOX15 (11748057_x_at) / RFU CD79A (11719716_a_at) / Fold change /veh CD79A (11719716_a_at) / RFU HIST1H1D (11736915_at) / Fold change /veh HIST1H1D (11736915_at) / RFU CASKIN2 (11723855_a_at) / Fold change /veh CASKIN2 (11723855_a_at) / RFU LOC730098 (11760151_x_at) / Fold change /veh LOC730098 (11760151_x_at) / RFU OR4N2 (11742367_at) / Fold change /veh OR4N2 (11742367_at) / RFU PRRT2 (11749266_a_at) / Fold change /veh PRRT2 (11749266_a_at) / RFU SNX32 (11753110_a_at) / Fold change /veh SNX32 (11753110_a_at) / RFU CDHR5 (11726645_a_at) / Fold change /veh CDHR5 (11726645_a_at) / RFU RCAN1 (11760418_a_at) / Fold change /veh RCAN1 (11760418_a_at) / RFU FAM167A (11723789_a_at) / Fold change /veh FAM167A (11723789_a_at) / RFU FAM26E (11764081_at) / Fold change /veh FAM26E (11764081_at) / RFU ISYNA1 (11749810_s_at) / Fold change /veh ISYNA1 (11749810_s_at) / RFU ACY1 (11761880_at) / Fold change /veh ACY1 (11761880_at) / RFU 11764098_at / Fold change /veh 11764098_at / RFU SAMD14 (11745864_x_at) / Fold change /veh SAMD14 (11745864_x_at) / RFU NPB (11741838_a_at) / Fold change /veh NPB (11741838_a_at) / RFU TMPRSS6 (11731388_a_at) / Fold change /veh TMPRSS6 (11731388_a_at) / RFU KRTAP10-2 (11738614_at) / Fold change /veh KRTAP10-2 (11738614_at) / RFU ARHGAP8 /// PRR5-ARHGAP8 (11727945_x_at) / Fold change /veh ARHGAP8 /// PRR5-ARHGAP8 (11727945_x_at) / RFU KRTAP5-7 /// NADSYN1 (11734609_at) / Fold change /veh KRTAP5-7 /// NADSYN1 (11734609_at) / RFU RASL12 (11751679_a_at) / Fold change /veh RASL12 (11751679_a_at) / RFU CDKN2B (11736163_a_at) / Fold change /veh CDKN2B (11736163_a_at) / RFU PRF1 (11729649_at) / Fold change /veh PRF1 (11729649_at) / RFU, ZNF638 /// ZNF638-IT1 / Fold change vs veh, ZNF638 /// ZNF638-IT1 / RFU, PANK3 / Fold change vs veh, PANK3 / RFU, SH3YL1 / Fold change vs veh, SH3YL1 / RFU, ZEB2 / Fold change vs veh, ZEB2 / RFU, NRIP1 / Fold change vs veh, NRIP1 / RFU, PTTG1IP / Fold change vs veh, PTTG1IP / RFU, CAPN2 / Fold change vs veh, CAPN2 / RFU, MED14 / Fold change vs veh, MED14 / RFU, SNORA58 / Fold change vs veh, SNORA58 / RFU, C1orf63 / Fold change vs veh, C1orf63 / RFU, LRRFIP1 / Fold change vs veh, LRRFIP1 / RFU, NDUFAF7 / Fold change vs veh, NDUFAF7 / RFU, SLC12A2 / Fold change vs veh, SLC12A2 / RFU, IBTK / Fold change vs veh, IBTK / RFU, ESF1 / Fold change vs veh, ESF1 / Fold change vs veh, TMEM50B / RFU, TAOK1 / Fold change vs veh, TAOK1 / RFU, ACBD3 / Fold change vs veh, ACBD3 / RFU, TMA16 / Fold change vs veh, TMA16 / RFU, RWDD3 / Fold change vs veh, RWDD3 / RFU, BCAT1 / Fold change vs veh, BCAT1 / RFU, EDEM3 / Fold change vs veh, EDEM3 / RFU, TMEM33 / Fold change vs veh, TMEM33 / RFU, WDR75 / Fold change vs veh, WDR75 / RFU, AHCTF1 / Fold change vs veh, AHCTF1 / RFU, TFRC / Fold change vs veh, TFRC / RFU, ZDHHC17 / Fold change vs veh, ZDHHC17 / RFU, NOM1 / Fold change vs veh, NOM1 / RFU, ARL8B / Fold change vs veh, ARL8B / RFU, ZBTB11 / Fold change vs veh, ZBTB11 / RFU, TAMM41 / Fold change vs veh, TAMM41 / RFU, KIAA1704 /// LOC100996395 / Fold change vs veh, KIAA1704 /// LOC100996395 / RFU, ING1 / Fold change vs veh, ING1 / RFU, TRMT61B / Fold change vs veh, TRMT61B / RFU, FUBP3 / Fold change vs veh, FUBP3 / RFU, TP53 / Fold change vs veh, TP53 / RFU, TNKS2 / Fold change vs veh, TNKS2 / RFU, ZFP14 / Fold change vs veh, ZFP14 / RFU, ACTR2 / Fold change vs veh, ACTR2 / RFU, PPP3R1 / Fold change vs veh, PPP3R1 / RFU, PIK3R1 / Fold change vs veh, PIK3R1 / RFU, HNRNPA1 / Fold change vs veh, HNRNPA1 / RFU, RNF170 / Fold change vs veh, RNF170 / RFU, ZNF28 / Fold change vs veh, ZNF28 / RFU, RNGTT / Fold change vs veh, RNGTT / RFU, OGT / Fold change vs veh, OGT / RFU, BRD1 / Fold change vs veh, BRD1 / RFU, MARS / Fold change vs veh, MARS / RFU, ZNF655 / Fold change vs veh, ZNF655 / RFU, FAHD1 / Fold change vs veh, FAHD1 / RFU, BDP1 / Fold change vs veh, BDP1 / RFU, LRRCC1 / Fold change vs veh, LRRCC1 / RFU, ARID1A / Fold change vs veh, ARID1A / RFU, ZNF146 / Fold change vs veh, ZNF146 / RFU, ZNF330 / Fold change vs veh, ZNF330 / RFU, GPN3 / Fold change vs veh, GPN3 / RFU, C9orf123 / Fold change vs veh, C9orf123 / RFU, N4BP2L2 / Fold change vs veh, N4BP2L2 / RFU, ARFIP1 / Fold change vs veh, ARFIP1 / RFU, FAM179B / Fold change vs veh, FAM179B / RFU, BCL10 / Fold change vs veh, BCL10 / RFU, UHRF1BP1L / Fold change vs veh, UHRF1BP1L / RFU, BET1 / Fold change vs veh, BET1 / RFU, CNOT2 / Fold change vs veh, CNOT2 / RFU, ZNF268 / Fold change vs veh, ZNF268 / Fold change vs veh, ZNF507 / RFU, DGCR2 / Fold change vs veh, DGCR2 / RFU, WDSUB1 / Fold change vs veh, WDSUB1 / Fold change vs veh, HSP90B1 /// MIR3652 / RFU, ADSS / Fold change vs veh, ADSS / RFU, GK / Fold change vs veh, GK / RFU, ZNF148 / Fold change vs veh, ZNF148 / RFU, TAF9 / Fold change vs veh, TAF9 / RFU, SLC1A5 / Fold change vs veh, SLC1A5 / RFU, SLMO2 / Fold change vs veh, SLMO2 / RFU, ABCC4 / Fold change vs veh, ABCC4 / RFU, LOC101060439 /// RAP1B / Fold change vs veh, LOC101060439 /// RAP1B / RFU, RFX7 / Fold change vs veh, RFX7 / RFU, GTPBP10 / Fold change vs veh, GTPBP10 / RFU, CNEP1R1 / Fold change vs veh, CNEP1R1 / RFU, BIVM-ERCC5 /// ERCC5 / Fold change vs veh, BIVM-ERCC5 /// ERCC5 / RFU, ILF3 / Fold change vs veh, ILF3 / RFU 11762660_at / Fold change /veh 11762660_at / RFU VCAN (11757783_s_at) / Fold change /veh VCAN (11757783_s_at) / RFU DDX43 (11728927_at) / Fold change /veh DDX43 (11728927_at) / RFU KRT8 (11758188_x_at) / Fold change /veh KRT8 (11758188_x_at) / RFU NKD1 (11759106_at) / Fold change /veh NKD1 (11759106_at) / RFU SRD5A1 (11742802_a_at) / Fold change /veh SRD5A1 (11742802_a_at) / RFU TPSAB1 /// TPSB2 (11721975_s_at) / Fold change /veh TPSAB1 /// TPSB2 (11721975_s_at) / RFU GSTM3 (11746129_a_at) / Fold change /veh GSTM3 (11746129_a_at) / RFU IL23R (11737362_x_at) / Fold change /veh IL23R (11737362_x_at) / RFU TMEM51 (11727254_a_at) / Fold change /veh TMEM51 (11727254_a_at) / RFU PIWIL2 (11732686_x_at) / Fold change /veh PIWIL2 (11732686_x_at) / RFU ORM1 (11744905_x_at) / Fold change /veh ORM1 (11744905_x_at) / RFU CCDC152 (11743942_at) / Fold change /veh CCDC152 (11743942_at) / RFU ECM1 (11717891_a_at) / Fold change /veh ECM1 (11717891_a_at) / RFU IL23R (11748794_a_at) / Fold change /veh IL23R (11748794_a_at) / RFU TNFAIP8L3 (11732012_x_at) / Fold change /veh TNFAIP8L3 (11732012_x_at) / RFU MBOAT4 (11741988_at) / Fold change /veh MBOAT4 (11741988_at) / RFU 11764193_at / Fold change /veh 11764193_at / RFU TMEM53 (11763286_at) / Fold change /veh TMEM53 (11763286_at) / RFU MAGEB2 (11727129_at) / Fold change /veh MAGEB2 (11727129_at) / RFU TMEM200A (11744735_a_at) / Fold change /veh TMEM200A (11744735_a_at) / RFU CCDC152 (11751479_a_at) / Fold change /veh CCDC152 (11751479_a_at) / RFU FAM211A (11726209_a_at) / Fold change /veh FAM211A (11726209_a_at) / RFU RGS16 (11746705_a_at) / Fold change /veh RGS16 (11746705_a_at) / RFU VCAN (11755009_s_at) / Fold change /veh VCAN (11755009_s_at) / RFU RHOB (11743442_s_at) / Fold change /veh RHOB (11743442_s_at) / RFU RGS16 (11720943_a_at) / Fold change /veh RGS16 (11720943_a_at) / RFU RGS16 (11720944_at) / Fold change /veh RGS16 (11720944_at) / RFU, VPS4B / Fold change vs veh, VPS4B / RFU, CREB1 / Fold change vs veh, CREB1 / RFU, DNAJC13 / Fold change vs veh, DNAJC13 / RFU, GNAQ / Fold change vs veh, GNAQ / RFU, CDK5R1 / Fold change vs veh, CDK5R1 / RFU, ZRANB3 / Fold change vs veh, ZRANB3 / RFU, CUL4A / Fold change vs veh, CUL4A / RFU, CCNY / Fold change vs veh, CCNY / RFU, UFL1 / Fold change vs veh, UFL1 / RFU, COG3 / Fold change vs veh, COG3 / RFU, DIAPH2 / Fold change vs veh, DIAPH2 / RFU, SKA2 / Fold change vs veh, SKA2 / RFU, AFF3 / Fold change vs veh, AFF3 / RFU, LMF1 / Fold change vs veh, LMF1 / RFU, IPO11 / Fold change vs veh, IPO11 / RFU, DFFB / Fold change vs veh, DFFB / RFU, FOXP1 / Fold change vs veh, FOXP1 / RFU, CARD8 / Fold change vs veh, CARD8 / RFU, STRN3 / Fold change vs veh, STRN3 / RFU, ADK / Fold change vs veh, ADK / RFU, RASSF2 / Fold change vs veh, RASSF2 / RFU, WIPF1 / Fold change vs veh, WIPF1 / RFU, LARP1B / Fold change vs veh, LARP1B / RFU, RASA1 / Fold change vs veh, RASA1 / RFU, RB1 / Fold change vs veh, RB1 / RFU, PPFIA1 / Fold change vs veh, PPFIA1 / RFU, MAT2A / Fold change vs veh, MAT2A / RFU, CCT5 / Fold change vs veh, CCT5 / RFU, WDR92 / Fold change vs veh, WDR92 / RFU, CUX1 / Fold change vs veh, CUX1 / RFU, TTC7A / Fold change vs veh, TTC7A / RFU, TMEM135 / Fold change vs veh, TMEM135 / RFU, DEPTOR / Fold change vs veh, DEPTOR / RFU, CPM / Fold change vs veh, CPM / RFU, DNAJB6 / Fold change vs veh, DNAJB6 / RFU, CACNA2D3 / Fold change vs veh, CACNA2D3 / RFU, DTX4 / Fold change vs veh, DTX4 / RFU, TFCP2 / Fold change vs veh, TFCP2 / RFU, GMCL1 /// GMCL1P1 / Fold change vs veh, GMCL1 /// GMCL1P1 / RFU, AEBP2 / Fold change vs veh, AEBP2 / RFU, SNHG1 /// SNORD22 /// SNORD25 /// SNORD26 /// SNORD27 /// SNORD28 /// SNORD29 /// SNORD31 / Fold change vs veh, SNHG1 /// SNORD22 /// SNORD25 /// SNORD26 /// SNORD27 /// SNORD28 /// SNORD29 /// SNORD31 / Fold change (Aza/veh), C12orf56 (ProbeSet 11735607_a_at) / Fold change (ACY-1035/veh), C12orf56 (ProbeSet 11735607_a_at) / Fold change (Aza/veh), FGFR1OP (ProbeSet 11751329_s_at) / Fold change (ACY-1035/veh), FGFR1OP (ProbeSet 11751329_s_at) / Fold change (Aza/veh), VPS36 (ProbeSet 11739960_a_at) / Fold change (ACY-1035/veh), VPS36 (ProbeSet 11739960_a_at) / RFU SYPL1 (11715823_x_at) / Fold change /veh SYPL1 (11715823_x_at) / RFU IGFBP7 (11715501_s_at) / Fold change /veh IGFBP7 (11715501_s_at) / RFU REEP3 (11722064_at) / Fold change /veh REEP3 (11722064_at) / RFU IGLL1 (11728026_x_at) / Fold change /veh IGLL1 (11728026_x_at): dose or concentration left out as unconfirmed
Settings: MV-4-11 cells, 48 hours

Nc1ccc(-c2cccs2)cc1NC(=O)c1ccc2c(c1)cc(C1CC1)n2CCN1CCOCC1 [ACY-1035]
Fold change /veh PRB3 (11715151_x_at): 0.95
